Laboratory results reported in PubChem BioAssay (NCI).
“And” between values parts separate entries of the source, which are not always exact repeats. Identical values can stand only once.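 Test compounds were applied to cells in 96-well plates for 48 hours at 5 doses. The concentration for 50% growth inhibition is given as GI50. TGI: total growth inhibition.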

Tests used:
Experiment in all cases: DTP human tumour cell line panel, 48 h
[1] = tested on: A498 renal
[2] = tested on: HCT-116 colon
[3] = tested on: HT29 colon
[4] = tested on: NCI-H226 lung
[5] = tested on: NCI-H460 lung
[6] = tested on: OVCAR-3 ovarian
[7] = tested on: SN12C renal
[8] = tested on: SW-620 colon
[9] = tested on: HOP-92 NSCLC
[10] = tested on: RXF 393 renal

Structure (SMILES)	TGI [1] [µM]	TGI [2] [µM]	TGI [3] [µM]	TGI [4] [µM]	TGI [5]	TGI [6] [µM]	TGI [7] [µM]	TGI [8] [µM]	TGI [9] [µM]	TGI [10] [µM]	GI50 [1] [µM]	GI50 [9] [µM]	GI50 [4] [µM]	GI50 [5] [µM]	GI50 [6] [µM]	GI50 [10] [µM]	GI50 [7] [µM]	GI50 [8] [µM]	GI50 [3] [µM]	GI50 [2] [µM]
CCOC(=O)C1=C(C)N(C2OC(COC(=O)c3ccccc3)C(OC(=O)c3ccccc3)C2OC(=O)c2ccccc2)C(=S)NC1c1ccccc1 (stereo unspecified)	> 100	> 100	> 100	> 100	> 100 µM	71.9	> 100	> 100												
C(=C/c1nc2ccccc2o1)/c1ccc2c(c1)OCO2	56.8	33.3	> 81.8	55.2	> 100 µM	29.1	> 100	> 100	69.7	41.9										
CN/N=C(\C(=O)Nc1ccc(C)c(C)c1)C(C(=O)OC)c1nc2ccc([N+](=O)[O-])cc2[nH]c1=O (stereo unspecified)	> 100	> 100	> 100	> 100	> 100 µM		> 100	> 100	> 100	> 100										
CCOC(C)OC1CC(n2cc(C)c(=O)[nH]c2=O)OC1CO (stereo unspecified)	> 100	> 100	> 100	> 100	> 100 µM	> 100	> 100	> 100	> 100	> 100										
C=C(C)[C@@H]1CC[C@]2(CO)CC[C@]3(C)[C@H](CC[C@@H]4[C@@]5(C)CC[C@H](NCO)C(C)(C)[C@@H]5CC[C@]43C)[C@@H]12	1.69			20.5	1.79 µM	1.61	1.5	1.96	1.6	1.57	0.802	0.783	8.3	0.918	0.88	0.842	0.79	0.948		
CCOC(=O)C(C)N1C(=O)c2ccccc2S1(=O)=O (stereo unspecified)	> 100	> 100	> 100	> 100	> 100 µM	> 100	> 100	> 100	> 100	> 100	29.1					> 100				
C=C(C)[C@@H]1CC[C@]2(C(=O)NC(C)=O)CC[C@]3(C)[C@H](CC[C@@H]4[C@@]5(C)CCCNC(C)(C)[C@@H]5CC[C@]43C)[C@@H]12	2.91		3.06		3.13 µM	3.04	2.79	3.07	2.89	3.26	1.53	1.33		1.64	1.59	1.76	1.47	1.53	1.21	
CN1CN(C(=O)N2CN(C)C(=O)N(C)C2)CN(C)C1=O	> 100	> 100	> 100	> 100		> 100	> 100	> 100												
NC(=O)Oc1ccccc1	> 100	> 100	> 100	> 100	> 100 µM	> 100	> 100	> 100	> 100	> 100										
O=C(CCC1CCCCN1)Nc1ccc2c(c1)C(=O)c1ccc(NC(=O)CCN3CCCCC3)cc1C2=O (stereo unspecified)	16.2	4.96	10.8	18.6	23.9 µM	8.37	4.34		5.98	2.07										
CCOC(=O)Cn1c(=O)c(C)cn(COCCO)c1=O	> 100		> 100	> 100	> 100 µM	> 100	> 100	> 100	> 100	> 100										
COc1ccc(C2=NC(c3ccc(Cl)cc3)C(c3ccc(Cl)cc3)N2C(=O)N2CCNC(=O)C2)c(OC(C)C)c1 (stereo unspecified)	3.55	3.2	> 10	4.19	3.82 µM	3.13	3.49	6.12	4.06	6.84	1.89	2.1	2.08	1.95	1.71	3.6	1.94	2.41	3.27	1.81
CC1OC(=O)C(C(C)C)NC(=O)C(C(C)C)OC(=O)C(C(C)C)NC(=O)C(C)OC(=O)C(C(C)C)NC(=O)C(C(C)C)OC(=O)C(C(C)C)NC(=O)C(C)OC(=O)C(C(C)C)NC(=O)C(C(C)C)OC(=O)C(C(C)C)NC1=O (stereo unspecified)	0.0383	2.91	3.4	0.779	0.182 µM and 0.185 µM	0.0148	0.233	4.85		0.328		< 0.0001		< 0.0001	< 0.0001		0.00019	< 0.0001	< 0.0001	
